ChEMBL document CHEMBL1144866, “Surface descriptors for protein-ligand affinity prediction” (J Med Chem, 2003)

Assay: Inhibitory activity against glycogen phosphorylase, activity expressed as -logKi

Structure (SMILES)	-Log Ki
NCC(=O)N[C@H]1O[C@@H](CO)[C@@H](O)[C@H](O)[C@@H]1O	3.432
CS(=O)(=O)OCC1OC(CO)C(O)C(O)C1O (configuration not stated)	2.319
NN1C(=O)N[C@@]2(O[C@@H](CO)[C@@H](O)[C@H](O)[C@@H]2O)C1=O	3.836
O=C(CCl)N[C@H]1O[C@H](CO)[C@@H](O)[C@H](O)[C@H]1O	4.347
NC(=O)C1OC(CO)C(O)C(O)C1O (configuration not stated)	3.357
CNC(=O)C1OC(CO)C(O)C(O)C1O (configuration not stated)	3.796
NCC1OC(CO)C(O)C(O)C1O (stereo in doubt; form 2)	1.775
NC(=O)N[C@H]1O[C@H](CO)[C@@H](O)[C@H](O)[C@H]1O	3.854
CC(=O)N[C@H]1O[C@H](CO)[C@@H](O)[C@H](O)[C@H]1O	4.495
OCC1OC(CO)C(O)C(O)C1O (configuration not stated)	2.824
NCC1OC(CO)C(O)C(O)C1O (stereo in doubt; form 1)	1.462
CCCC(=O)N[C@H]1O[C@H](CO)[C@@H](O)[C@H](O)[C@H]1O	4.027
O=C(CBr)N[C@H]1O[C@@H](CO)[C@@H](O)[C@H](O)[C@@H]1O	4.357
CCC(=O)N[C@H]1O[C@H](CO)[C@@H](O)[C@H](O)[C@H]1O	4.409
CC(=O)NCC(=O)N[C@H]1O[C@H](CO)[C@@H](O)[C@H](O)[C@H]1O	3.004
COC(=O)N[C@]1(C(N)=O)O[C@H](CO)[C@@H](O)[C@H](O)[C@H]1O	4.796
O=C(N[C@H]1O[C@H](CO)[C@@H](O)[C@H](O)[C@H]1O)c1ccccc1	4.092
